The target of one assay is recombinant human CK2 (Homo sapiens (Human), UniProt P68400). The experiment in a line: CK2 assay (cell-free, 33P-ATP filter plate). In kind it is biochemical. The conditions noted are these: 500 nM compound, read-out: CK2: % inh 500 nM.
The target of another assay is recombinant human PIM1 (Homo sapiens (Human), UniProt P11309). The experiment in a line: PIM-1 kinase activity in cell-free in vitro assay. In kind it is biochemical. The settings on record: for inhibition at 0.5 µM: 500 nM compound, read-out: PIM-1: % inh 500 nM.
Chain of recombinant human PIM1 (P11309 whole entry): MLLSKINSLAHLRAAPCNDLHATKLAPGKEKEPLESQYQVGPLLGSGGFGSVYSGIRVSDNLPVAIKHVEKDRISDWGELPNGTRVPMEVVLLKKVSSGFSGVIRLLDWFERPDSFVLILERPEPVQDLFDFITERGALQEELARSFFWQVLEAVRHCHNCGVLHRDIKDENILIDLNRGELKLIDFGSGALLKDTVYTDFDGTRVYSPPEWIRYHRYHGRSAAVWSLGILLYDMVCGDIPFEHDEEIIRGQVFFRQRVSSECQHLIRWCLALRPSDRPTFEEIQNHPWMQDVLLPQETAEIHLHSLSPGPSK

Like-named read-outs stand apart in the source and are kept apart here.

Chain of recombinant human CK2 (P68400 whole entry): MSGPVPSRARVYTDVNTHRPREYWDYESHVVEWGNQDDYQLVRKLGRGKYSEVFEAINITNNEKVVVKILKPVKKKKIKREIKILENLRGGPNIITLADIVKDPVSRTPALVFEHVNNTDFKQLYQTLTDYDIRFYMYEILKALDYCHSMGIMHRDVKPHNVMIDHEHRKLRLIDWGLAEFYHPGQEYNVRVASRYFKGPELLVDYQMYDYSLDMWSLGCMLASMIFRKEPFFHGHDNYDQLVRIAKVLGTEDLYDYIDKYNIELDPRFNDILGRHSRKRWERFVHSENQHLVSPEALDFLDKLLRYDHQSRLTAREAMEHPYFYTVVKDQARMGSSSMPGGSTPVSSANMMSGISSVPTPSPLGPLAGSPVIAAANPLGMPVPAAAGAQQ
Chain of recombinant human CK2 (P67870 whole entry partner): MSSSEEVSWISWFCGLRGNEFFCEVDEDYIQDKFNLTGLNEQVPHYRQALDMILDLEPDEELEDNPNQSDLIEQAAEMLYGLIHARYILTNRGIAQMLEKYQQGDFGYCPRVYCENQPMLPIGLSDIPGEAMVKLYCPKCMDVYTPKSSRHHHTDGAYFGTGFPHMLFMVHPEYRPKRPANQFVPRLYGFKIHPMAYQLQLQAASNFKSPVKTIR

What is called IC50 is the concentration that gives 50% inhibition. Take `CN(C)CCNc1nc2cc(-c3nnn[nH]3)ccc2c2ccsc12`: the inhibition at 0.5 µM turned out to be 24.2% at recombinant human CK2 (cell-free assay) and 99.2% on recombinant human PIM1 (cell-free assay). For the same compound, the half-maximal inhibitory concentration (IC50) at recombinant human PIM1 (cell-free assay) worked out at 267 nM.

Turning to `N#Cc1ccc2c(c1)nc(NCCN(CCO)CCO)c1ccsc12`, the figures for the inhibition at 0.5 µM on recombinant human CK2 (cell-free assay) and on recombinant human PIM1 (cell-free assay) were -9.97% and -17.7%, respectively.

As to `Cc1cc2c(cc1OCc1ccccc1)[nH]c(=O)c1ccncc12`, the inhibition at 0.5 µM was -7.77% at recombinant human CK2 (cell-free assay) and -10.1% at recombinant human PIM1 (cell-free assay).

With `CN(C)CCNc1nc2cc(C#N)ccc2c2cscc12`, the inhibition at 0.5 µM at recombinant human CK2 (cell-free assay) was 23.4%; on recombinant human PIM1 (cell-free assay), 20%.

Take `Cc1nn(C)c(C)c1NC(=O)NCc1ccc2c(c1)nc(Nc1cccc(F)c1)c1ccsc12`: the figures for the inhibition at 0.5 µM at recombinant human CK2 (cell-free assay) and on recombinant human PIM1 (cell-free assay) were -5.43% and 11%, respectively.

As to `COCCNc1nc2cc(C#N)ccc2c2sccc12`, the inhibition at 0.5 µM at recombinant human CK2 (cell-free assay) is -18%; at recombinant human PIM1 (cell-free assay), -30.6%.

Turning to `FC(F)(F)CNc1nc2cc(-c3nnn[nH]3)ccc2c2sccc12`, the inhibition at 0.5 µM is 49% on recombinant human CK2 (cell-free assay) and 93.2% on recombinant human PIM1 (cell-free assay).

As to `CN1CCC(N(C)c2nc3cc(CNC(=O)Nc4cccc(Cl)c4)ccc3c3sccc23)C1` (stereo not shown), the inhibition at 0.5 µM on recombinant human CK2 (cell-free assay) is -50.4%; on recombinant human PIM1 (cell-free assay), -38.5%.

Turning to `O=C(O)c1ccc2c(c1)nc(NC1CCCC1)c1ccncc12`, the inhibition at 0.5 µM at recombinant human CK2 (cell-free assay) worked out at 101%. For the same compound, at recombinant human PIM1 (cell-free assay), the inhibition at 0.5 µM came out at 106% and the 50% inhibitory concentration (IC50) stood at 565 nM.

Regarding `O=c1[nH]c2cnccc2c2cnccc12`, the inhibition at 0.5 µM at recombinant human CK2 (cell-free assay) was determined as 7.5%; at recombinant human PIM1 (cell-free assay), 19.8%.

Regarding `COCCNc1nc2cc(-c3nnn[nH]3)ccc2c2sccc12`, the inhibition at 0.5 µM came to 47.2% at recombinant human CK2 (cell-free assay) and 65% on recombinant human PIM1 (cell-free assay).

For the compound `COC(=O)c1cccc2c1[nH]c(=O)c1ccncc12`, the inhibition at 0.5 µM on recombinant human CK2 (cell-free assay) was 16.7%; on recombinant human PIM1 (cell-free assay), -70.5%.

With `CN1CCC(N(C)c2nc3cc(CN)ccc3c3sccc23)C1` (stereo not shown), the inhibition at 0.5 µM is -35.3% on recombinant human CK2 (cell-free assay) and -39.8% at recombinant human PIM1 (cell-free assay).

Turning to `c1ccc(COc2nc3cc(-c4nnn[nH]4)ccc3c3sccc23)cc1`, the inhibition at 0.5 µM at recombinant human CK2 (cell-free assay) was 5.71%; on recombinant human PIM1 (cell-free assay), -6.97%.

As to `c1cc2c(s1)c(NC1CCNCC1)nc1cc(-c3nnn[nH]3)ccc12`, the inhibition at 0.5 µM on recombinant human CK2 (cell-free assay) is 53.7%. At recombinant human PIM1 (cell-free assay), the inhibition at 0.5 µM turned out to be 111% and the IC50 came to 138 nM.

On to `CCN1CCCC1CNc1nc2cc(C#N)ccc2c2cscc12` (stereo not shown), for which the inhibition at 0.5 µM worked out at 20.7% on recombinant human CK2 (cell-free assay) and 6.89% on recombinant human PIM1 (cell-free assay).

Consider `N#Cc1ccc2c(c1)nc(Oc1ccc(F)cc1)c1ccsc12`, for which the inhibition at 0.5 µM was -3.78% at recombinant human CK2 (cell-free assay) and 10% at recombinant human PIM1 (cell-free assay).

Consider `N#Cc1ccc2c(c1)nc(OCC(F)(F)F)c1ccsc12`, for which the inhibition at 0.5 µM on recombinant human CK2 (cell-free assay) was -9.05%; at recombinant human PIM1 (cell-free assay) it was -50.2%.

With `Cc1noc(-c2ccc3c(c2)nc(Nc2ccccc2)c2ccncc23)n1`, at recombinant human CK2 (cell-free), the inhibition at 0.5 µM was found to be 27.2%. Moreover, at recombinant human PIM1 (cell-free), the inhibition at 0.5 µM turned out to be 32.7% and the half-inhibitory concentration (IC50) was more than 1100 nM.

With `N#Cc1ccc2c(c1)nc(OCc1ccccc1)c1ccsc12`, the inhibition at 0.5 µM was 1.85% on recombinant human CK2 (cell-free assay) and -18.4% on recombinant human PIM1 (cell-free assay).

Turning to `CC(C)(C)OC(=O)N1CCC(Nc2nc3cc(C#N)ccc3c3ccsc23)CC1`, the figures for the inhibition at 0.5 µM on recombinant human CK2 (cell-free assay) and at recombinant human PIM1 (cell-free assay) were -17% and -29.4%, respectively.

For `N#Cc1ccc2c(c1)nc(NCCC(F)(F)F)c1ccsc12`, the inhibition at 0.5 µM is -7.76% at recombinant human CK2 (cell-free assay) and -89.6% on recombinant human PIM1 (cell-free assay).

Consider `COC(=O)c1cccc2c1nc(Cl)c1ccncc12` [drawing 2000], for which the inhibition at 0.5 µM was 10.1% at recombinant human CK2 (cell-free assay) and -29.2% on recombinant human PIM1 (cell-free assay).

Regarding `CN(C)CCOc1nc2cc(C#N)ccc2c2sccc12`, the inhibition at 0.5 µM is -18% on recombinant human CK2 (cell-free assay) and -43.2% on recombinant human PIM1 (cell-free assay).

For the compound `N#Cc1ccc2c(c1)nc(Oc1ccc(F)c(F)c1)c1ccsc12`, the inhibition at 0.5 µM is -9.99% on recombinant human CK2 (cell-free assay) and 27.8% at recombinant human PIM1 (cell-free assay).

Regarding `N#Cc1ccc2c(c1)nc(NCC(F)(F)F)c1ccsc12`, the inhibition at 0.5 µM was -18.4% on recombinant human CK2 (cell-free assay) and -32% at recombinant human PIM1 (cell-free assay).

With `CCN1CCCC1CNc1nc2cc(-c3nnn[nH]3)ccc2c2cscc12` (stereo not shown), the inhibition at 0.5 µM on recombinant human CK2 (cell-free assay) was 72.8%. For the same compound, at recombinant human PIM1 (cell-free assay), the inhibition at 0.5 µM came to 95.9% and the IC50 came to 79 nM.

On to `Cc1noc(C)c1NC(=O)NCc1ccc2c(c1)nc(Nc1cccc(F)c1)c1ccsc12`, for which the inhibition at 0.5 µM at recombinant human CK2 (cell-free assay) is -4.71%; on recombinant human PIM1 (cell-free assay), -11.2%.

As for `CNc1ncc2c(n1)c(Nc1ccccc1)nc1cc(C(=O)OC)ccc12`, the inhibition at 0.5 µM was -12.1% on recombinant human CK2 (cell-free assay) and -9.76% at recombinant human PIM1 (cell-free assay).

For the compound `CN1CCCCC1CNc1nc2cc(-c3nnn[nH]3)ccc2c2ccsc12` (stereo not shown), the inhibition at 0.5 µM on recombinant human CK2 (cell-free assay) was -29.1%; at recombinant human PIM1 (cell-free assay) it was 14.7%.

Take `CN1CCCCC1CNc1nc2cc(C#N)ccc2c2cscc12` (stereo not shown): the inhibition at 0.5 µM was 24.6% at recombinant human CK2 (cell-free assay) and 46.4% on recombinant human PIM1 (cell-free assay).

For the compound `NC(=O)c1cccc2c1nc(Nc1cccc(Cl)c1)c1ccncc12` [drawing 2002], the values for the inhibition at 0.5 µM at recombinant human CK2 (cell-free assay) and on recombinant human PIM1 (cell-free assay) were 36.6% and 78.9%, respectively.

Regarding `CN(C)CCNc1nc2cc(C#N)ccc2c2ccsc12`, the inhibition at 0.5 µM was -16.8% on recombinant human CK2 (cell-free assay) and 115% on recombinant human PIM1 (cell-free assay).

Regarding `Fc1cccc(Nc2nc3cc(CN(Cc4ccccc4)Cc4ccccc4)ccc3c3sccc23)c1`, the inhibition at 0.5 µM was -2.29% on recombinant human CK2 (cell-free assay) and 2.98% at recombinant human PIM1 (cell-free assay).

Turning to `CCN1CCCC1CNc1nc2cc(C(=O)O)ccc2c2cnccc12` (stereo not shown), the inhibition at 0.5 µM on recombinant human CK2 (cell-free assay) amounted to 107%. Further, at recombinant human PIM1 (cell-free assay), the inhibition at 0.5 µM was 79.4% and the IC50 was found to be 155 nM.

In the case of `CCN1CCCC1CNc1nc2cc(-c3nnn[nH]3)ccc2c2ccsc12` (stereo not shown), the inhibition at 0.5 µM on recombinant human CK2 (cell-free assay) is 1.86%; at recombinant human PIM1 (cell-free assay), 80%.

Regarding `N#Cc1ccc2c(c1)nc(Oc1cccc(Cl)c1)c1ccsc12`, the inhibition at 0.5 µM was -10.8% on recombinant human CK2 (cell-free assay) and 10.6% at recombinant human PIM1 (cell-free assay).

In the case of `O=C(O)c1cccc2c1nc(Nc1ccccc1)c1ccncc12` [drawing 2004], the inhibition at 0.5 µM at recombinant human CK2 (cell-free assay) was -13.5%; at recombinant human PIM1 (cell-free assay) it was -77.4%.

As to `COC(=O)c1ccc2c(c1)nc(Nc1ccc(F)c(Cl)c1)c1ncncc12`, the inhibition at 0.5 µM is 6.26% on recombinant human CK2 (cell-free) and -17.9% at recombinant human PIM1 (cell-free).

For `CN1CCCCC1CNc1nc2cc(C(=O)O)ccc2c2cnccc12` (stereo not shown), the inhibition at 0.5 µM on recombinant human CK2 (cell-free assay) came out at 103%. Moreover, on recombinant human PIM1 (cell-free assay), the inhibition at 0.5 µM was found to be 82.5% and the half-inhibitory concentration (IC50) stood at 211 nM.

For the compound `N#Cc1ccc2c(c1)nc(Oc1ccccc1)c1ccsc12`, the inhibition at 0.5 µM on recombinant human CK2 (cell-free assay) is -54.2%; at recombinant human PIM1 (cell-free assay), -38.6%.

As for `CN(C)CCNc1nc2cc(-c3nnn[nH]3)ccc2c2cscc12`, the inhibition at 0.5 µM on recombinant human CK2 (cell-free assay) amounted to 66%; on recombinant human PIM1 (cell-free assay), 89.7%. Besides, the IC50 at recombinant human PIM1 (cell-free assay) worked out at 87 nM.

Take `CCN1CCCC1CNc1nc2cc(C(=O)O)ccc2c2sccc12` (stereo not shown): the inhibition at 0.5 µM on recombinant human CK2 (cell-free assay) stood at 92.8%. Also, on recombinant human PIM1 (cell-free assay), the inhibition at 0.5 µM turned out to be 93.3% and the half-maximal inhibitory concentration (IC50) is 100 nM.

For `OCCN(CCO)CCNc1nc2cc(-c3nnn[nH]3)ccc2c2sccc12`, the inhibition at 0.5 µM on recombinant human CK2 (cell-free assay) turned out to be 50.7%. On recombinant human PIM1 (cell-free assay), the inhibition at 0.5 µM turned out to be 118% and the IC50 was 116 nM.

`CN1CCCCC1CNc1nc2cc(-c3nnn[nH]3)ccc2c2cscc12` (stereo not shown): the inhibition at 0.5 µM on recombinant human CK2 (cell-free assay) came to 57.4%. At recombinant human PIM1 (cell-free assay), the inhibition at 0.5 µM was determined as 93.9% and the IC50 worked out at 54 nM.

On to `FC(F)(F)COc1nc2cc(-c3nnn[nH]3)ccc2c2sccc12`, for which the inhibition at 0.5 µM amounted to 33% on recombinant human CK2 (cell-free assay) and 32.3% at recombinant human PIM1 (cell-free assay).
